Test [1] deals with Sigma non-opioid intracellular receptor 1 (Homo sapiens, UniProt Q99720). The test can be described thus: PDSP Secondary Binding target: SIGMAR1 - Compounds are tested at 10 uM concentration, plate are incubated at room temperature in the dark for 90 minutes. Reaction are stopped by vacuum filtration onto 0.3% polyethyleneimine soaked filter mats using Filtermate harvester. Scintillation cocktail is then melted onto microwave-dried filters on a hot plate and the radio activity is counted in Microbia counter.

In test [2] the target is D(3) dopamine receptor (Homo sapiens, UniProt P35462). Put plainly: PDSP Secondary Binding target: DRD3 - Compounds are tested at 10 uM concentration, plate are incubated at room temperature in the dark for 90 minutes. Reaction are stopped by vacuum filtration onto 0.3% polyethyleneimine soaked filter mats using Filtermate harvester. Scintillation cocktail is then melted onto microwave-dried filters on a hot plate and the radio activity is counted in Microbia counter.

The target of test [3] is T1, Alpha-1D adrenergic receptor (Homo sapiens, UniProt P25100).
T1 sequence (P25100 whole entry): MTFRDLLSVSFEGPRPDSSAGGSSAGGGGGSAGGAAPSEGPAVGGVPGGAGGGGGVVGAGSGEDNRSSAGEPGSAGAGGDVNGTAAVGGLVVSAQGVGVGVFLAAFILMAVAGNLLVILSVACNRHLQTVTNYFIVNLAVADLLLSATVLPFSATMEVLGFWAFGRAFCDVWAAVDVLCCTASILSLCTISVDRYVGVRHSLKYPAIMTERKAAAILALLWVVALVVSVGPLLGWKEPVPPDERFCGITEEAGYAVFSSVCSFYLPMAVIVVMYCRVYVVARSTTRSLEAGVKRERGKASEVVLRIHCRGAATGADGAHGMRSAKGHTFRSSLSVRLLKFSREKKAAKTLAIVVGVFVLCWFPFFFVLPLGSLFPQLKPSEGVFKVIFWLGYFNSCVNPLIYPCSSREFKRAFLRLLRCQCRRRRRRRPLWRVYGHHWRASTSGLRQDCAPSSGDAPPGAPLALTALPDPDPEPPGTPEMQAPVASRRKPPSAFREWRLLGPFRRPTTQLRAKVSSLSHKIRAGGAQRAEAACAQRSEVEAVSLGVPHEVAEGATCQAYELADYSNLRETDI
The test can be described thus: PDSP Secondary Binding target: ADRA1D - Compounds are tested at 10 uM concentration, plate are incubated at room temperature in the dark for 90 minutes. Reaction are stopped by vacuum filtration onto 0.3% polyethyleneimine soaked filter mats using Filtermate harvester. Scintillation cocktail is then melted onto microwave-dried filters on a hot plate and the radio activity is counted in Microbia counter.

The target of test [4] is 5-hydroxytryptamine receptor 2A (Homo sapiens, UniProt P28223). Put plainly: PDSP Secondary Binding target: HTR2A - Compounds are tested at 10 uM concentration, plate are incubated at room temperature in the dark for 90 minutes. Reaction are stopped by vacuum filtration onto 0.3% polyethyleneimine soaked filter mats using Filtermate harvester. Scintillation cocktail is then melted onto microwave-dried filters on a hot plate and the radio activity is counted in Microbia counter.

Test [5] deals with 5-hydroxytryptamine receptor 6 (Homo sapiens, UniProt P50406). Put plainly: PDSP Secondary Binding target: HTR6 - Compounds are tested at 10 uM concentration, plate are incubated at room temperature in the dark for 90 minutes. Reaction are stopped by vacuum filtration onto 0.3% polyethyleneimine soaked filter mats using Filtermate harvester. Scintillation cocktail is then melted onto microwave-dried filters on a hot plate and the radio activity is counted in Microbia counter.

In test [6] the target is D(2) dopamine receptor (Homo sapiens, UniProt P14416). The test can be described thus: PDSP Secondary Binding target: DRD2 - Compounds are tested at 10 uM concentration, plate are incubated at room temperature in the dark for 90 minutes. Reaction are stopped by vacuum filtration onto 0.3% polyethyleneimine soaked filter mats using Filtermate harvester. Scintillation cocktail is then melted onto microwave-dried filters on a hot plate and the radio activity is counted in Microbia counter.

In test [7] the target is 5-hydroxytryptamine receptor 5A (Homo sapiens, UniProt P47898). Put plainly: PDSP Secondary Binding target: HTR5A - Compounds are tested at 10 uM concentration, plate are incubated at room temperature in the dark for 90 minutes. Reaction are stopped by vacuum filtration onto 0.3% polyethyleneimine soaked filter mats using Filtermate harvester. Scintillation cocktail is then melted onto microwave-dried filters on a hot plate and the radio activity is counted in Microbia counter.

In test [8] the target is Sigma intracellular receptor 2 (Homo sapiens, UniProt Q5BJF2). The test can be described thus: PDSP Secondary Binding target: TMEM97 - Compounds are tested at 10 uM concentration, plate are incubated at room temperature in the dark for 90 minutes. Reaction are stopped by vacuum filtration onto 0.3% polyethyleneimine soaked filter mats using Filtermate harvester. Scintillation cocktail is then melted onto microwave-dried filters on a hot plate and the radio activity is counted in Microbia counter.

Test [9] concerns the target Mu-type opioid receptor (Homo sapiens, UniProt P35372). The test can be described thus: PDSP Secondary Binding target: OPRM1 - Compounds are tested at 10 uM concentration, plate are incubated at room temperature in the dark for 90 minutes. Reaction are stopped by vacuum filtration onto 0.3% polyethyleneimine soaked filter mats using Filtermate harvester. Scintillation cocktail is then melted onto microwave-dried filters on a hot plate and the radio activity is counted in Microbia counter.

Test [10] concerns the target T2, Alpha-2A adrenergic receptor (Homo sapiens, UniProt P08913).
T2 sequence (P08913 whole entry): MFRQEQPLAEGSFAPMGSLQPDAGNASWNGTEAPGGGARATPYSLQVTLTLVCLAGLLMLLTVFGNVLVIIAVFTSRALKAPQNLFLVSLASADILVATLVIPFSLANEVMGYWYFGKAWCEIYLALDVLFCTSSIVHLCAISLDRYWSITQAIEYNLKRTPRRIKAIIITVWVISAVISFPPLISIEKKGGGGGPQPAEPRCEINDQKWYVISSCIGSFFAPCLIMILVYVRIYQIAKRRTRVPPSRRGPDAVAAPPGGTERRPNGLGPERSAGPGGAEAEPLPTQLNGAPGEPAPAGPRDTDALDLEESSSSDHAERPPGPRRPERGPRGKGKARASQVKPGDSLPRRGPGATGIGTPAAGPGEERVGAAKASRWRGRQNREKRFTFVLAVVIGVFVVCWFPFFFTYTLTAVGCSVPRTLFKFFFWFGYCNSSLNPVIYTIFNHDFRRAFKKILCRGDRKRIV
The test can be described thus: PDSP Secondary Binding target: ADRA2A - Compounds are tested at 10 uM concentration, plate are incubated at room temperature in the dark for 90 minutes. Reaction are stopped by vacuum filtration onto 0.3% polyethyleneimine soaked filter mats using Filtermate harvester. Scintillation cocktail is then melted onto microwave-dried filters on a hot plate and the radio activity is counted in Microbia counter.

Structures can show the parent of a compound that is named as a salt.

By Ki is commonly meant the equilibrium dissociation constant of an inhibitor or competing ligand from its target. A lower Ki goes with tighter binding.

Sequence of D(3) dopamine receptor (P35462 whole entry): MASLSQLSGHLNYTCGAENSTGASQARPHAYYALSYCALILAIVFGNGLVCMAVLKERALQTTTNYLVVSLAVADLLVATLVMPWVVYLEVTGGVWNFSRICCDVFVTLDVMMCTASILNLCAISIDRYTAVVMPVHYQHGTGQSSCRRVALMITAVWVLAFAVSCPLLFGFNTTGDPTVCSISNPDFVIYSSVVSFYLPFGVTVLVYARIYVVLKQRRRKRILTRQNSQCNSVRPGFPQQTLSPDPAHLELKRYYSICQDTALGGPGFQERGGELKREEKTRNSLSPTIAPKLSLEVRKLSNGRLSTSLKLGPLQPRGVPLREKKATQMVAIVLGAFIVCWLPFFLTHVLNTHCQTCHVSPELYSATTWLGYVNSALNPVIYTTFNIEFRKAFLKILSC
Sequence of Sigma non-opioid intracellular receptor 1 (Q99720 whole entry): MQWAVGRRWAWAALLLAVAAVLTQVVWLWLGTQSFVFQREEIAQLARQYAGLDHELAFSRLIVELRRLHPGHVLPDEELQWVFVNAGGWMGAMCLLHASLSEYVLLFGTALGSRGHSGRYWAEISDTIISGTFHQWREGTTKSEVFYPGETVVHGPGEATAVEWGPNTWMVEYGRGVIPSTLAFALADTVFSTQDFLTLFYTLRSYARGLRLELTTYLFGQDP
Sequence of 5-hydroxytryptamine receptor 5A (P47898 whole entry): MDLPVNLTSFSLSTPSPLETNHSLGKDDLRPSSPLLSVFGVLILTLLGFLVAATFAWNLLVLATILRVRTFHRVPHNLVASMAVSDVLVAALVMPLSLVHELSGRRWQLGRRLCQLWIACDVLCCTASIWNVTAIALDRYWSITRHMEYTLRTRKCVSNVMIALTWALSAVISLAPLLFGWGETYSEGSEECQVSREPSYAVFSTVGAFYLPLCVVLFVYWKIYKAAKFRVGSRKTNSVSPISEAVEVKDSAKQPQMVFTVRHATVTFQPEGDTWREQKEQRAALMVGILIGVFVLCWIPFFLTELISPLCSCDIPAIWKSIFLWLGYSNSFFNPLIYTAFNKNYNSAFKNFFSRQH
Sequence of Mu-type opioid receptor (P35372 whole entry): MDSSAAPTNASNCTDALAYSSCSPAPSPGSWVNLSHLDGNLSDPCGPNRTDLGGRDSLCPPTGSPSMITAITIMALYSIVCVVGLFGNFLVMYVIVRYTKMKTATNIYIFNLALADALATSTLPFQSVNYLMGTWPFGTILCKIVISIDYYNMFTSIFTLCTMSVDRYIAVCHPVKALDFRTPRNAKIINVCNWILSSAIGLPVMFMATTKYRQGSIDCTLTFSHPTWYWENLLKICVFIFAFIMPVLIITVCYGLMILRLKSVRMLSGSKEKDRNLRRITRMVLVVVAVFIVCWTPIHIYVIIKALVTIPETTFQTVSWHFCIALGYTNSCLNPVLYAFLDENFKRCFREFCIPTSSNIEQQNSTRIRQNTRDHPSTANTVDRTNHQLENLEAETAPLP
Sequence of Sigma intracellular receptor 2 (Q5BJF2 whole entry): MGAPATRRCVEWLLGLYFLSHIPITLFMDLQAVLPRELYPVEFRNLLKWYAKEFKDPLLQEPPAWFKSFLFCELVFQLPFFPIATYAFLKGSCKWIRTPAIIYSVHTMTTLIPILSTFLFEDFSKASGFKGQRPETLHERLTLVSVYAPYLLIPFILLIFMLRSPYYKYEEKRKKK
Sequence of 5-hydroxytryptamine receptor 2A (P28223 whole entry): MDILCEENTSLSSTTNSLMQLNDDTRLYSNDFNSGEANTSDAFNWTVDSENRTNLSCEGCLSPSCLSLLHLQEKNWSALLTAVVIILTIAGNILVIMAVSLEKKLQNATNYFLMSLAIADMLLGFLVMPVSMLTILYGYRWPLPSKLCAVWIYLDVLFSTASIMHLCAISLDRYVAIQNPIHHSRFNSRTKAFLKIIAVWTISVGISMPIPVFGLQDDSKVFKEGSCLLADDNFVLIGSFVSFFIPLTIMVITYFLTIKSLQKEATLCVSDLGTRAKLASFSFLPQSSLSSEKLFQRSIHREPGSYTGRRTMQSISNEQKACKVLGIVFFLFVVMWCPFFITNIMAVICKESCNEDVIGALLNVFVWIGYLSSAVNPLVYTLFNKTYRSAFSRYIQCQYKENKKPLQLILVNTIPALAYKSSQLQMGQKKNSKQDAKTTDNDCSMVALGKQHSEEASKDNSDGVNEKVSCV
Sequence of 5-hydroxytryptamine receptor 6 (P50406 whole entry): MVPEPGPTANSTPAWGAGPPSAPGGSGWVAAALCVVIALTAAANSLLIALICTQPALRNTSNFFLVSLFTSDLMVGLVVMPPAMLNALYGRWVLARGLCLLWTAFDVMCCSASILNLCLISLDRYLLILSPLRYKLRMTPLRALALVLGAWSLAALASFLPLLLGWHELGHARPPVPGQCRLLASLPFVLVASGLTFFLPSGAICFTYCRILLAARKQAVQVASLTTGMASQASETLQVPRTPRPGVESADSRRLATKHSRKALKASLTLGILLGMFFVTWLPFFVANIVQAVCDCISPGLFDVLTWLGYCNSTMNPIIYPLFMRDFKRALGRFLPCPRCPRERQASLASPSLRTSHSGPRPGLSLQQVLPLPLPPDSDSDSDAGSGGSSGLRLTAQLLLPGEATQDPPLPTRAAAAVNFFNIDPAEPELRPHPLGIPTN
Sequence of D(2) dopamine receptor (P14416 whole entry): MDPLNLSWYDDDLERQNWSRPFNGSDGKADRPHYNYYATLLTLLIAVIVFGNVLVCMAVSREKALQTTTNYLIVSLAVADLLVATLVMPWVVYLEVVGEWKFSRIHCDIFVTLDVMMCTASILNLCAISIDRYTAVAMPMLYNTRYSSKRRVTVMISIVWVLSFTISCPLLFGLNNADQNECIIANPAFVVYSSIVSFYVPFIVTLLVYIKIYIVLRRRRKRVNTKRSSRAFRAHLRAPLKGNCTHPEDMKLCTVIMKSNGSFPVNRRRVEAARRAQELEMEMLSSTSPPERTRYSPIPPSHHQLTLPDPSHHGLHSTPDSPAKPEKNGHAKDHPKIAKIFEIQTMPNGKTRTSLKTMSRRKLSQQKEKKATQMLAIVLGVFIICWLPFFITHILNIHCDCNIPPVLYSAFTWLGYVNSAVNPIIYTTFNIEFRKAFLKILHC

Take `CN1C2CCC1CC(OC(c1ccc(F)cc1)c1ccc(F)cc1)C2` (stereo not given): the Ki in test [1] turned out to be 98.8 nM; in test [2], 116 nM; in test [3], 58.2 nM; in test [4], 17.4 nM; in [5], 374 nM; in test [6], 767 nM.
Take `COC(=O)C1=C(C)NC(C)=C(C(=O)OCCCN2CCC(c3ccccc3)(c3ccccc3)CC2)[C@H]1c1cccc([N+](=O)[O-])c1` [NIGULDIPINE]: the Ki in test [7] is 431 nM; in [8] it was 328 nM; in test [1], 320 nM; in [9], 129 nM; in [2], 425 nM; in [5] it was 878 nM. This compound also had a Ki in test [6] of 280 nM.
In the case of `N#Cc1ccc2[nH]cc(CCCCN3CCN(c4ccc5oc(C(N)=O)cc5c4)CC3)c2c1` [VILAZODONE HYDROCHLORIDE], the inhibition constant (Ki) worked out at 1090 nM in test [8]; 14.2 nM in test [1]; 730 nM in test [9]; 2490 nM in test [10]; 133 nM in test [2]; 716 nM in test [3]. The inhibition constant (Ki) worked out at 960 nM in test [5] and 553 nM in test [6].
For `O=c1ccc2ccc(OCCCCN3CCN(c4cccc5sccc45)CC3)cc2[nH]1` [BREXPIPRAZOLE], the Ki worked out at 178 nM in test [7]; 63 nM in test [8]; 212 nM in test [10]; 10.4 nM in test [2]; 76.4 nM in [3]; 18.3 nM in test [4]. Further, the Ki in test [5] came to 308 nM; in test [6], 5.99 nM.
With `CCc1nn(CCCN2CCN(c3cccc(Cl)c3)CC2)c(=O)n1CCOc1ccccc1` [NEFAZODONE HYDROCHLORIDE], the inhibition constant Ki in test [7] was found to be 1090 nM; in test [8], 222 nM; in test [2] it was 380 nM; in [3], 445 nM; in test [5], 1110 nM; in test [6] it was 736 nM.
Regarding `CN1CCCC(n2nc(Cc3ccc(Cl)cc3)c3ccccc3c2=O)CC1` (stereo not given) [AZELASTINE HYDROCHLORIDE], the inhibitory constant (Ki) is 32 nM in [8]; 150 nM in test [1]; 1450 nM in [10]; 636 nM in [2]; 333 nM in test [3]; 230 nM in test [4]. The Ki in test [5] was determined as 2090 nM; in test [6], 1180 nM.
For the compound `CCCCCNC(=N)N/N=C/c1c[nH]c2ccc(OC)cc12` [TEGASEROD MALEATE], the Ki was 201 nM in test [7]; 57.2 nM in test [8]; 177 nM in test [1]; 2850 nM in test [9]; 426 nM in test [2]; 1640 nM in test [3]. Further, the inhibitory constant (Ki) is 431 nM in test [4], 566 nM in test [5] and 297 nM in test [6].
Consider `CN1C[C@H](C(=O)N[C@]2(C)O[C@@]3(O)[C@@H]4CCCN4C(=O)[C@H](Cc4ccccc4)N3C2=O)C[C@@H]2c3cccc4[nH]cc(c34)C[C@H]21` [DIHYDROERGOTAMINE MESYLATE], for which the Ki in [7] came to 31.3 nM; in [8], 2840 nM; in [1], 604 nM; in test [9], 154 nM; in test [2], 34 nM; in test [5], 225 nM. Also, in test [6], the inhibitory constant (Ki) amounted to 60.9 nM.
In the case of `Cc1nc2sccn2c(=O)c1CCN1CCC(=C(c2ccc(F)cc2)c2ccc(F)cc2)CC1` [RITANSERIN], the inhibition constant (Ki) is 102 nM in test [7]; 339 nM in [8]; 426 nM in [1]; 344 nM in [9]; 367 nM in [10]; 35.5 nM in test [2]. Moreover, the Ki in [5] worked out at 287 nM; in [6] it was 184 nM.
Turning to `CN1CCC(=C2c3ccccc3CC(=O)c3sccc32)CC1` [KETOTIFEN FUMARATE], the inhibitory constant (Ki) in test [8] turned out to be 366 nM; in test [10] it was 1080 nM; in test [2], 717 nM; in test [5], 825 nM; in [6], 1730 nM.
With `Cc1ccc2c(c1)c1c(n2CCc2ccc(C)nc2)CCN(C)C1` [LATREPIRDINE], the inhibition constant (Ki) in test [7] came to 107 nM; in test [1] it was 1310 nM; in test [10], 729 nM; in test [2], 461 nM; in [3], 767 nM; in test [4], 726 nM. For the same compound, the results for the Ki in [5] and in [6] were 144 nM and 1550 nM, respectively.

(Values after ChEMBL document CHEMBL5442175, “EUbOPEN Chemogenomics Library - PDSP Secondary Binding” (2024).)
